From article PMC4192545, “Suramin Inhibits Hsp104 ATPase and Disaggregase Activity” (PLoS ONE, 2014)
Where a name gives a salt, the structure may show the parent alone. Read-outs that look alike come from different tables or passages of the source.

Legend:
Hsp104 [1] = molecular target: T1, Hsp104 (Saccharomyces cerevisiae, UniProt P31539); experiment: High-throughput Hsp104 ATPase plate assay (malachite green, 384-well); format: biochemical, yeast; settings: for inhibition at 10 µM: read-out: % Inhibition of Hsp104 ATP hydrolysis
T1 construct: made in house; host or cells: E. coli BL21-DE3 RIL
T1 sequence (P31539 whole entry): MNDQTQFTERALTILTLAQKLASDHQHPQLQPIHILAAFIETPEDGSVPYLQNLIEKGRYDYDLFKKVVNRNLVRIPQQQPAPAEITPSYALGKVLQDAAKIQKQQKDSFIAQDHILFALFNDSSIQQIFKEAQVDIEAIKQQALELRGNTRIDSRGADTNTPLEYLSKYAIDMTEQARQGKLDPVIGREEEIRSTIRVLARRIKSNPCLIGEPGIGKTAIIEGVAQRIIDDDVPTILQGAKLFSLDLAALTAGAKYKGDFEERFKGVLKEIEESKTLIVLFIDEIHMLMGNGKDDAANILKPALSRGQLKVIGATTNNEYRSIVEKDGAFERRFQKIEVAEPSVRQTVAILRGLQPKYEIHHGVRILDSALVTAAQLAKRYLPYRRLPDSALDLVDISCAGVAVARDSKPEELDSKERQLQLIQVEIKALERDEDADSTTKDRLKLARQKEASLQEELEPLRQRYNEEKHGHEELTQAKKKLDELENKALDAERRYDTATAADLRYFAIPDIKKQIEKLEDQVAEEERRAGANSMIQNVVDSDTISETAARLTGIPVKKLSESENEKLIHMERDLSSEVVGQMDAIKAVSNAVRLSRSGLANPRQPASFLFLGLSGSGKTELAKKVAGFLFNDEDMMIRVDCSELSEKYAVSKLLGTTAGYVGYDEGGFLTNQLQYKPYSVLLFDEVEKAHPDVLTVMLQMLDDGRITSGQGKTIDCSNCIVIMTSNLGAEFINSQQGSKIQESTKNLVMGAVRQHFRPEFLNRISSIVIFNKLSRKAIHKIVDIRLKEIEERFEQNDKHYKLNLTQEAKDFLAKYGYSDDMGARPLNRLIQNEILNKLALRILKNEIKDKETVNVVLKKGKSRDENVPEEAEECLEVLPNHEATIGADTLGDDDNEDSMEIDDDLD
Experimental: ATPase activity was assessed by the release of inorganic phosphate determined using a malachite green phosphate detection kit (Innova Biosciences, Cambridge, United Kingdom). Microtiter plates (384-well) were purchased from PerkinElmer (Waltham, MA). Three libraries were screened: The NIH Clinical Collection (450 small molecules), the Spectrum Collection (2,000 compounds, MicroSource, Gaylordsville, CT) and the HitFinder Collection (14,400 compounds, Maybridge).
We adapted the inorganic phosphate colorimetric assay to fit a 384-well plate format. A Ź-factor between 0.8 and 1 was calculated for the assay. A 2X Hsp104 stock solution was dispensed into each well using a Biotek microflo (Biotek Instruments, Winooski, VT). Compounds were then transferred using a Janus 96/384 Modular Dispensing Tool (PerkinElmer). Finally, a 2X ATP solution was dispensed using the Biotek microflo. Final concentrations of Hsp104 (monomer) and ATP were 0.25 µM and 1 mM respectively. Seeking to avoid the discovery of competitive inhibitors, we designed our high-throughput screen to use a 100-fold excess of ATP with respect to the test compounds (10 µM each). Final buffer conditions were 20 mM HEPES-KOH pH 7.4, 20 mM NaCl and 10 mM MgCl2. The ATPase reaction was allowed to continue for 60 min, at which time the reaction was terminated by addition of the colorimetric reagent. Absorbance was measured at 635 nm on an EnVision Xcite Multilabel plate reader (PerkinElmer). Hits were tested in duplicate. […] Ten of these were subjected to a 6-point titration (40, 13.3, 4.44, 1.45, 0.49 and 0 µM) in the absence or presence of Triton X-100, BSA, or both Triton X-100 and BSA at the specified concentrations. Heat maps were created in Excel for Mac 2011 (Microsoft Corporation) using the Conditional Formatting feature (Color Scales).
We aimed to identify small molecules capable of inhibiting Hsp104. To do so, we employed high-throughput screening using Hsp104 ATPase activity as a proxy for function. To detect changes in Hsp104 ATPase activity, we used a colorimetric assay detecting free inorganic phosphate (Pi) based on the formation of a colored complex between Pi and a dye molecule under acidic conditions, [44]. Pi is produced from the Hsp104-driven hydrolysis of ATP. The colored complex concentration, a surrogate for Pi concentration and ATPase rate, is determined by measuring the absorbance of a sample at 635 nm. We used recombinant Hsp104 purified from E. coli. An Hsp104 mutant with mutations in both NBD1 and NBD2 Walker B sequence motifs (Hsp104^DWB, carrying ATPase ablating mutations E285Q: E687Q) was used as a negative control for ATPase activity. Hsp104^WT activity results in a high A635 (high ATPase), while Hsp104^DWB activity results in a low A635 (low ATPase). We optimized the Pi colorimetric assay to fit a 384-well plate format. We selected the Hsp104 concentration (0.25 µM) on the basis of previous experience in our laboratory. The ATP concentration was selected to be in a 100-fold excess of ATP with respect to the test compounds. […] We screened 16,850 compounds from the NIH Clinical Collection as well as the Spectrum and Maybridge compound libraries. […] For instance, hexachlorophene and tannic acid inhibit Hsp104 ATPase activity by ∼80%, while Merbromin and Sennoside a inhibit by ∼20% ( Table 1 ).

Hsp104^WT = molecular target: T2, Hsp104^WT (Saccharomyces cerevisiae, UniProt P31539); experiment: Manual ATPase assay, Hsp104^WT; format: biochemical, yeast; settings: 60 min, ATP 1 mM
T2 construct: made in house; host or cells: E. coli BL21-DE3 RIL
T2 sequence (P31539 whole entry): as above
Experimental: Wild-type or mutant Hsp104 (0.25 µM monomer) in ATPase buffer (20 mM HEPES-KOH pH 7.4, 20 mM NaCl and 10 mM MgCl2) was incubated for 60 or 10 min at 25°C in the presence of ATP (1 mM) as noted. ATPase activity was assessed by the release of inorganic phosphate determined by using a malachite green phosphate detection kit (Innova).

Hsp104 [2] = molecular target: T1, Hsp104; experiment: Luciferase disaggregation/reactivation assay, Hsp104 with ATP:ATPγS; format: biochemical, yeast; settings: for Normalized Luciferase Refolding Activity: 90 min 25°C, ATP:ATPγS 1:1, Figure 3A
Experimental: Luciferase reactivation was performed as described, [37]. To assemble aggregates, firefly luciferase (50 µM) in luciferase refolding buffer (LRB, 25 mM HEPES-KOH, 7.4, 150 mM KAOc, 10 mM MgAOc, 10 mM DTT) with 6 M urea was incubated at 30°C for 20 min. Luciferase was then rapidly diluted 100-fold into LRB, divided into 100 µL aliquots, snap frozen in liquid N2, and stored at −80°C. For reactivation assays, aggregated luciferase (50 nM) was incubated with Hsp104 (1 µM hexamer), plus 2.6 mM ATPγS, 2.6 mM ATP and an ATP regeneration system (1 mM creatine phosphate, 0.25 µM creatine kinase (Roche Applied Science)) for 90 minutes at 25°C. Luciferase assay system was purchased from Promega. Luciferase activity was assessed by luminescence measured on a Safire^2 microplate reader (Tecan, Männedorf, Switzerland). The half maximal inhibitory concentration (IC50) was calculating by fitting luciferase-refolding data at different Suramin concentrations with Prism (GraphPad Software, Inc., La Jolla, CA).

Hsp104 [3] = settings: cited from earlier work
[4] = 10 µM compound, Hsp104 0.25 µM monomer, ATP 1 mM, 60 min, mean ±S.D. (n = 2)

Compound	inhibition at 10 µM (Hsp104 [1]; [4]) [%]	% Inhibition of Hsp104 ATP hydrolysis (Hsp104 [1]; [4]) [%]	further results
O=C(O)C1=CC(=C(c2ccc(O)c(C(=O)O)c2)c2ccc(O)c(C(=O)O)c2)C=CC1=O [Aurin tricarboxylic acid]	24.2 ± 1.41	–	–
N.N.O=C([O-])C1(C(=O)[O-])CCC1.[Pt+2] [Carboplatin]	–	73.75±1.41	–
N.N.[Cl][Pt][Cl] [Cisplatin, cis-diamminedichloroplatinum (II)]	–	76.58±1.06	Inhibition of Hsp104 ATPase activity in the presence of both Triton X-100 and BSA (Hsp104 [1]; titration 40-0.49 µM, 60 min, Triton X-100 and BSA, heat map Figure 1A): most significantly inhibit Hsp104 ATPase activity; Effect on Hsp104 ATPase activity (Pi produced), manual assay (Hsp104^WT; varying concentrations, Figure 2A): unable to replicate the inhibitory effect of Cisplatin outside of the 384-well format
O=C(Oc1cc(O)cc2c1C[C@@H](OC(=O)c1cc(O)c(O)c(O)c1)[C@@H](c1cc(O)c(O)c(O)c1)O2)c1cc(O)c(O)c(O)c1 [Epigallocatechin 3,5-digallate]	21.9 ± 2.53	–	–
Cl.N=C(N)N [GdmCl, guanidinium hydrochloride]	–	–	Effect on Hsp104 ATPase activity, manual assay (Hsp104^WT; 30 mM (highest concentration tested)): only very mildly inhibited Hsp104 ATPase activity; Concentration needed to elicit the same level of inhibition as 100 µM Suramin (complete ablation of luciferase refolding) (Hsp104 [2]; ATP:ATPγS 1:1): 5 mM; Normalized Luciferase Refolding Activity (Hsp104 [2]; GdmCl 1 mM): 0.07; Normalized Luciferase Refolding Activity (Hsp104 [2]; GdmCl 5 mM): 0.01; Normalized Luciferase Refolding Activity (Hsp104 [2]; GdmCl 10 mM): 0.01; Normalized Luciferase Refolding Activity (Hsp104 [2]; GdmCl 20 mM): 0.01; Effect on luciferase reactivation activity of Hsp104 (Hsp104 [2]; all concentrations of GdmCl tested (1-20 mM)): very strongly inhibited the luciferase reactivation activity of Hsp104; Hsp104 ATPase activity remaining (Hsp104 [3]; GdmCl 100 mM): large fraction of Hsp104 ATPase activity remained; Effective concentration for inhibition of Hsp104 activity (Hsp104 [3]): effective at millimolar concentrations
CC(=O)O.Cc1cc2c(C(C)C)c(O)c(O)c(C=O)c2c(O)c1-c1c(C)cc2c(C(C)C)c(O)c(O)c(C=O)c2c1O [Gossypol-acetic acid complex]	–	47.92±1.30	–
Cc1cc2c(C(C)C)c(O)c(O)c(C=O)c2c(O)c1-c1c(C)cc2c(C(C)C)c(O)c(O)c(C=O)c2c1O [Gossypol]	–	–	inhibition at 10 µM (Hsp104 [1]): 42.3 ± 4.83%
O=C1C=C2CC3(O)COc4c(ccc(O)c4O)C3=C2C=C1O (centres unmarked) [Hematein]	–	–	inhibition at 10 µM (Hsp104 [1]): 45.7 ± 5.95%
Oc1c(Cl)cc(Cl)c(Cl)c1Cc1c(O)c(Cl)cc(Cl)c1Cl [Hexachlorophene]	~80	80.21±1.00	–
O=C([O-])c1ccccc1-c1c2cc(Br)c(=O)cc-2oc2[c]([Hg+])c([O-])c(Br)cc12.[Na+].[Na+].[OH-] [Merbromin]	–	21.17±3.54	–
C=C1c2cccc(O)c2C(=O)C2=C(O)[C@]3(O)C(=O)C(C(N)=O)=C(O)[C@@H](N(C)C)[C@@H]3[C@@H](O)[C@H]12 [Methacycline hydrochloride]	33.3 ± 2.12	–	–
O=C(O)c1cc(O)c2c(c1)[C@H]([C@H]1c3cc(C(=O)O)cc(O)c3C(=O)c3c(O[C@@H]4O[C@H](CO)[C@@H](O)[C@H](O)[C@H]4O)cccc31)c1cccc(O[C@@H]3O[C@H](CO)[C@@H](O)[C@H](O)[C@H]3O)c1C2=O [Sennoside a]	~20	19.92±7.07	–
O=C(O[C@@H]1Cc2c(O)cc(O)cc2O[C@@H]1c1cc(O)c(=O)c2c(O)c(O)cc([C@H]3Oc4cc(O)cc(O)c4C[C@H]3O)c2c1)c1cc(O)c(O)c(O)c1 [Theaflavin monogallates]	57.2 ± 7.19	–	–
Chlorophyllide Cu Complex Na Salt	–	33.79±2.18	–
Sucralfate Sodium	–	25.67±2.59	–
Tannic acid	–	79.79±0.29	% Inhibition of Hsp104 ATP hydrolysis (Hsp104 [1]; 10 µM compound, Hsp104 0.25 µM monomer, ATP 1 mM, 60 min, mean ±S.D. (n = 2), listed as tannic acid): ~80%
